Assay results: article PMC11003494 (Journal of Enzyme Inhibition and Medicinal Chemistry, 2023)
pKi: −log10 of the molar value.

Experiments:
hCA I = hCA I (Homo sapiens, UniProt P00915); test: Stopped-flow CA catalysed CO2 hydration inhibition assay, hCA I; format: biochemical
hCA II = hCA II (Homo sapiens, UniProt P00918); test: Stopped-flow CA catalysed CO2 hydration inhibition assay, hCA II; format: biochemical
hCA IX = hCA IX (Homo sapiens, UniProt Q16790); test: biochemical
hCA XII = hCA XII (Homo sapiens, UniProt O43570); test: Stopped-flow CA catalysed CO2 hydration inhibition assay, hCA XII; format: biochemical
Chain of hCA XII (O43570 30-289 limits assumed): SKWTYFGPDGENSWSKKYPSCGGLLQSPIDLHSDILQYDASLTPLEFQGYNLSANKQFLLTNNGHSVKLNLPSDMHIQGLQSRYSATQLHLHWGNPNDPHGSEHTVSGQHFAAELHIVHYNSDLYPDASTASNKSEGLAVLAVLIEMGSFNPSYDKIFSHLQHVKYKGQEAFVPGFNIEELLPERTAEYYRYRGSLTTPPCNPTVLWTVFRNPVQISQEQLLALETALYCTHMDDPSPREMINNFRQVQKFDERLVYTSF

Chain of hCA I (P00915 whole entry): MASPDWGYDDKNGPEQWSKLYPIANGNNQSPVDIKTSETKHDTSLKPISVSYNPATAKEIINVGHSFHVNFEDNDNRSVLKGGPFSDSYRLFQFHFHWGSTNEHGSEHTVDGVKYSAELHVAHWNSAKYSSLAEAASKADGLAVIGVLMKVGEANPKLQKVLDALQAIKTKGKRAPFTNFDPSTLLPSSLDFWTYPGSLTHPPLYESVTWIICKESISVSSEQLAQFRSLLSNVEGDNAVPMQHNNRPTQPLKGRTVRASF

| Compound | pKi (hCA I) | pKi (hCA II) | pKi (hCA IX) | pKi (hCA XII) |
| --- | --- | --- | --- | --- |
| Cc1c(CC(=O)O)c(=O)oc2c(C)c3occ(-c4ccc(F)cc4F)c3cc12 [EMAC10164h, 2-(3-(2,4-Difluorophenyl)-5,9-dimethyl-7-oxo-7H-furo[3,2-g]chromen-6-yl)acetic acid] | < 4.00 | < 4.00 | 5.37 | 5.20 |
| COC(=O)Cc1c(C)c2ccc(OCC(=O)c3ccccc3)c(C)c2oc1=O [EMAC10163i, Methyl 2-(4,8-dimethyl-2-oxo-7-(2-oxo-2-phenylethoxy)-2H-chromen-3-yl)acetate] | < 4.00 | < 4.00 | < 4.00 | 5.28 |
| COC(=O)Cc1c(C)c2ccc(OCC(=O)c3ccc(C)cc3)c(C)c2oc1=O [EMAC10163a, Methyl 2‐{4,8‐dimethyl‐7‐[2‐(4‐methylphenyl)‐2‐oxoethoxy]‐2‐oxo‐2H‐chromen‐3‐yl}acetate] | < 4.00 | < 4.00 | 5.53 | 5.60 |
| COC(=O)Cc1c(C)c2ccc(OCC(=O)c3ccc(-c4ccccc4)cc3)c(C)c2oc1=O [EMAC10163g, Methyl 2-(7-(2-([1,1′-biphenyl]-4-yl)-2-oxoethoxy)-4,8-dimethyl-2-oxo-2H-chromen-3-yl)acetate] | < 4.00 | < 4.00 | < 4.00 | 5.05 |
| COC(=O)Cc1c(C)c2ccc(OCC(=O)c3ccc(OC)cc3)c(C)c2oc1=O [EMAC10163b, Methyl 2-(7-(2-(4-methoxyphenyl)-2-oxoethoxy)-4,8-dimethyl-2-oxo-2H-chromen-3-yl)acetate] | < 4.00 | < 4.00 | 6.28 | 6.33 |
| Cc1c(CC(=O)O)c(=O)oc2c(C)c3occ(-c4ccc(-c5ccccc5)cc4)c3cc12 [EMAC10164g, 2-(3-([1,1′-Biphenyl]-4-yl)-5,9-dimethyl-7-oxo-7H-furo[3,2-g]chromen-6-yl)acetic acid] | < 4.00 | < 4.00 | 6.15 | 6.09 |
| COC(=O)Cc1c(C)c2ccc(OCC(=O)c3cccc(OC)c3)c(C)c2oc1=O [EMAC10163k, Methyl 2-(7-(2-(3-methoxyphenyl)-2-oxoethoxy)-4,8-dimethyl-2-oxo-2H-chromen-3-yl)acetate] | < 4.00 | < 4.00 | < 4.00 | 5.31 |
| COC(=O)Cc1c(C)c2ccc(OCC(=O)c3ccc(Br)cc3)c(C)c2oc1=O [EMAC10163c, Methyl 2-(7-(2-(4-bromophenyl)-2-oxoethoxy)-4,8-dimethyl-2-oxo-2H-chromen-3-yl)acetate] | < 4.00 | < 4.00 | 5.38 | 5.27 |
| COC(=O)Cc1c(C)c2ccc(OCC(=O)c3ccc(F)cc3)c(C)c2oc1=O [EMAC10163d, Methyl 2-(7-(2-(4-fluorophenyl)-2-oxoethoxy)-4,8-dimethyl-2-oxo-2H-chromen-3-yl)acetate] | < 4.00 | < 4.00 | 5.62 | 5.22 |

Other lines, results leading:

| pKi (hCA I) | pKi (hCA II) | pKi (hCA IX) | pKi (hCA XII) | Compound |
| --- | --- | --- | --- | --- |
| < 4.00 | < 4.00 | 5.33 | 5.11 | COC(=O)Cc1c(C)c2ccc(OCC(=O)c3ccc([N+](=O)[O-])cc3)c(C)c2oc1=O [EMAC10163e, Methyl 2-(4,8-dimethyl-7-(2-(4-nitrophenyl)-2-oxoethoxy)-2-oxo-2H-chromen-3-yl)acetate] |
| < 4.00 | < 4.00 | < 4.00 | 5.34 | COc1ccc(-c2coc3c(C)c4oc(=O)c(CC(=O)O)c(C)c4cc23)cc1 [EMAC10164b, 2-(3-(4-Methoxyphenyl)-5,9-dimethyl-7-oxo-7H-furo[3,2-g]chromen-6-yl)acetic acid] |
| < 4.00 | < 4.00 | 5.38 | 5.44 | COc1cccc(-c2coc3c(C)c4oc(=O)c(CC(=O)O)c(C)c4cc23)c1 [EMAC10164k, 2-(3-(3-Methoxyphenyl)-5,9-dimethyl-7-oxo-7H-furo[3,2-g]chromen-6-yl)acetic acid] |
| < 4.00 | < 4.00 | < 4.00 | 5.35 | Cc1c(CC(=O)O)c(=O)oc2c(C)c3occ(-c4ccc(Br)cc4)c3cc12 [EMAC10164c, 2-(3-(4-Bromophenyl)-5,9-dimethyl-7-oxo-7H-furo[3,2-g]chromen-6-yl)acetic acid] |
| < 4.00 | < 4.00 | < 4.00 | 5.39 | Cc1ccc(-c2coc3c(C)c4oc(=O)c(CC(=O)O)c(C)c4cc23)cc1 [EMAC10164a, 2-(5,9-Dimethyl-7-oxo-3-(p-tolyl)-7H-furo[3,2-g]chromen-6-yl)acetic acid] |
| < 4.00 | < 4.00 | 5.49 | 5.10 | Cc1c(CC(=O)O)c(=O)oc2c(C)c3occ(-c4ccc(Cl)cc4)c3cc12 [EMAC10164j, 2-(3-(4-Chlorophenyl)-5,9-dimethyl-7-oxo-7H-furo[3,2-g]chromen-6-yl)acetic acid] |
| < 4.00 | < 4.00 | 5.35 | 5.25 | COC(=O)Cc1c(C)c2ccc(OCC(=O)c3ccc(F)cc3F)c(C)c2oc1=O [EMAC10163h, Methyl 2-(7-(2-(2,4-difluorophenyl)-2-oxoethoxy)-4,8-dimethyl-2-oxo-2H-chromen-3-yl)acetate] |
| < 4.00 | < 4.00 | 5.50 | 5.47 | Cc1c(CC(=O)O)c(=O)oc2c(C)c3occ(-c4ccccc4)c3cc12 [EMAC10164i, 2-(5,9-Dimethyl-7-oxo-3-phenyl-7H-furo[3,2-g]chromen-6-yl)acetic acid] |
| < 4.00 | < 4.00 | 6.34 | 6.10 | Cc1c(CC(=O)O)c(=O)oc2c(C)c3occ(-c4ccc(F)cc4)c3cc12 [EMAC10164d, 2-(3-(4-Fluorophenyl)-5,9-dimethyl-7-oxo-7H-furo[3,2-g]chromen-6-yl)acetic acid] |
| < 4.00 | < 4.00 | < 4.00 | 5.62 | COC(=O)Cc1c(C)c2ccc(OCC(=O)c3ccc(Cl)cc3)c(C)c2oc1=O [EMAC10163j, Methyl 2-(7-(2-(4-chlorophenyl)-2-oxoethoxy)-4,8-dimethyl-2-oxo-2H-chromen-3-yl)acetate] |
| < 4.00 | < 4.00 | < 4.00 | 5.11 | COC(=O)Cc1c(C)c2ccc(OCC(=O)c3cccc([N+](=O)[O-])c3)c(C)c2oc1=O [EMAC10163f, Methyl 2-(4,8-dimethyl-7-(2-(3-nitrophenyl)-2-oxoethoxy)-2-oxo-2H-chromen-3-yl)acetate] |
